From US20250326744A1, “PIPERAZINE DERIVATIVE OR SALT THEREOF, AND PHARMACEUTICAL COMPOSITION” (priority 2022, published 2025)
Where a name gives a salt, the structure may show the parent alone.

Experiments:
[1] = tested on: mexB (PA) strain; experiment: Combinational effect with antibacterial agent against Pseudomonas aeruginosa (Test Examples 2 and 4): mexB (PA) strain with LVFX, TC or AZT at 1/4 MIC, EC99; assay type: cell-based; details: for EC99, mexB (PA), AZT / EC99, mexB (PA), LVFX / EC99, mexB (PA), TC: Table 52, Test Example 2, 16 to 20 hours culture, OD595; for EC99, mexB (PA), AZT / EC99, combinational effect with AZT, mexB (PA): combined with AZT at 1/4 MIC; for EC99, mexB (PA), LVFX / EC99, combinational effect with LVFX, mexB (PA): combined with LVFX at 1/4 MIC; for EC99, mexB (PA), TC / EC99, combinational effect with TC, mexB (PA): combined with TC at 1/4 MIC; for EC99, combinational effect with AZT, mexB (PA) / EC99, combinational effect with LVFX, mexB (PA) / EC99, combinational effect with TC, mexB (PA): mexB (PA) strain, Test Example 4
Method in brief: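 EC99 denotes the minimum test-compound concentration (range 0–800 μM) that suppresses ≥99% of growth, measured by OD595, when combined with ¼ MIC levofloxacin (LVFX), tetracycline or aztreonam. The efflux-pump mutant mexB (PA), expressing mainly MexAB-OprM, was inoculated at 10^4–5 CFU/well in CAMHB for 16–20 h.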

[2] = tested on: S-3769 strain; experiment: Combinational effect with antibacterial agent against Pseudomonas aeruginosa (Test Examples 2 and 4): S-3769 strain with AMK or GM at 1/4 MIC, EC99; assay type: cell-based; details: for EC99, S-3769 strain, AMK / EC99, S-3769 strain, GM: Table 52, Test Example 2, 16 to 20 hours culture, OD595; for EC99, S-3769 strain, AMK / EC99, combinational effect with AMK, S-3769 strain: combined with AMK at 1/4 MIC; for EC99, S-3769 strain, GM / EC99, combinational effect with GM, S-3769 strain: combined with GM at 1/4 MIC; for EC99, combinational effect with AMK, S-3769 strain / EC99, combinational effect with GM, S-3769 strain: Test Example 4
Method in brief: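 EC99, the lowest test-compound concentration inhibiting growth by ≥99% (OD595), was measured with aminoglycoside AMK or GM held at ¼ MIC. Strain S-3769, a MexY-overexpressing clinical isolate, was cultured in CAMHB at 10^4 to 5 CFU/well for 16–20 h; compound range 0–800 μM.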

SMILES	EC99, mexB (PA), AZT [1]	EC99, mexB (PA), LVFX [1]	EC99, mexB (PA), TC [1]	EC99, S-3769 strain, AMK [2]	EC99, S-3769 strain, GM [2]	EC99, combinational effect with AZT, mexB (PA) [1]	EC99, combinational effect with LVFX, mexB (PA) [1]	EC99, combinational effect with TC, mexB (PA) [1]	EC99, combinational effect with AMK, S-3769 strain [2]	EC99, combinational effect with GM, S-3769 strain [2]
CCOc1cccc(F)c1CN1CCN(C(=O)[C@H](N)C2CCN(CCc3cc(Cl)ccc3-c3ccccc3O)CC2)CC1 [Example 107, (R)-2-amino-2-(1-(2-(4-chloro-2′-hydroxy-[1,1′-biphenyl]-2-yl)ethyl)piperidin-4-yl)-1-(4-(2-ethoxy-6-fluorobenzyl)piperazin-1-yl)ethan-1-one]	A (12.5 μM<EC99≤25 μM)	A (12.5 μM<EC99≤25 μM)	A (12.5 μM<EC99≤25 μM)	A (12.5 μM<EC99≤25 μM)	A (12.5 μM<EC99≤25 μM)	–	–	–	–	–
CCOc1cccc(F)c1CN1CCN(C(=O)[C@H](N)C2CCN(CCc3ccccc3OC)CC2)CC1 [Example 122, Hydrochloride of (R)-2-amino-1-(4-(2-ethoxy-6-fluorobenzyl)piperazin-1-yl)-2-(1-(2-methoxyphenethyl)piperidin-4-yl)ethan-1-one]	C (100 μM<EC99)	C (100 μM<EC99)	C (100 μM<EC99)	B (25 μM<EC99≤100 μM)	A (12.5 μM<EC99≤25 μM)	–	–	–	–	–
CSc1ccccc1CN1CCN(C(=O)[C@H](N)C2CCN(CCc3cc(Cl)ccc3-c3cc(O)cc(Cl)c3)CC2)CC1 [Example 610, (R)-2-amino-2-(1-(2-(3′-4-dichloro-5′-hydroxy-[1,1′-biphenyl]-2-yl)ethyl)piperidin-4-yl)-1-(4-(2-(methylthio)benzyl)piperazin-1-yl)ethan-1-one]	–	–	–	–	–	S (EC99≤12.5 μM)	S (EC99≤12.5 μM)	S (EC99≤12.5 μM)	S (EC99≤12.5 μM)	S (EC99≤12.5 μM)
CCSc1cc(F)ccc1CN1CCN(C(=O)[C@H](N)C2CCN(CCc3cc(Cl)ccc3-c3cccc(O)c3Cl)CC2)CC1 [Example 616, (R)-2-amino-2-(1-(2-(2′,4-dichloro-3′-hydroxy-[1,1′-biphenyl]-2-yl)ethyl)piperidin-4-yl)-1-(4-(2-(ethylthio)-4-fluorobenzyl)piperazin-1-yl)ethan-1-one]	–	–	–	–	–	S (EC99≤12.5 μM)	S (EC99≤12.5 μM)	S (EC99≤12.5 μM)	S (EC99≤12.5 μM)	S (EC99≤12.5 μM)
CCOc1cccc(F)c1CN1CCN(C(=O)[C@H](N)C2CCN(CCc3ccccc3F)CC2)CC1 [Example 121, Hydrochloride of (R)-2-amino-1-(4-(2-ethoxy-6-fluorobenzyl)piperazin-1-yl)-2-(1-(2-fluorophenethyl)piperidin-4-yl)ethan-1-one]	C (100 μM<EC99)	C (100 μM<EC99)	C (100 μM<EC99)	B (25 μM<EC99≤100 μM)	B (25 μM<EC99≤100 μM)	–	–	–	–	–
CCOc1cccc(F)c1CN1CCN(C(=O)[C@H](N)C2CCN(CCc3c[nH]c4ccccc34)CC2)CC1 [Example 148, hydrobromide of (R)-2-(1-(2-(1H-indol-3-yl)ethyl)piperidin-4-yl)-2-amino-1-(4-(2-ethoxy-6-fluorobenzyl)piperazin-1-yl)ethan-1-one]	C (100 μM<EC99)	C (100 μM<EC99)	B (25 μM<EC99≤100 μM)	S (EC99≤12.5 μM)	S (EC99≤12.5 μM)	–	–	–	–	–
CCSc1cc(F)ccc1CN1CCN(C(=O)[C@H](N)C2CCN(CCc3cc(Cl)ccc3-c3cc(O)ccc3Cl)CC2)CC1 [Example 619, (R)-2-amino-2-(1-(2-(2′,4-dichloro-5′-hydroxy-[1,1′-biphenyl]-2-yl)ethyl)piperidin-4-yl)-1-(4-(2-(ethylthio)-4-fluorobenzyl)piperazin-1-yl)ethan-1-one]	–	–	–	–	–	S (EC99≤12.5 μM)	S (EC99≤12.5 μM)	S (EC99≤12.5 μM)	S (EC99≤12.5 μM)	S (EC99≤12.5 μM)
CCOc1cccc(F)c1CN1CCN(C(=O)[C@H](N)C2CCN(CCc3cc(Cl)ccc3-c3coc4ccccc34)CC2)CC1 [Example 549, Hydrobromide of (R)-2-amino-2-(1-(2-(benzofuran-3-yl)-5-chlorophenethyl)piperidin-4-yl)-1-(4-(2-ethoxy-6-fluorobenzyl)piperazin-1-yl)ethan-1-one]	–	–	–	–	–	A (12.5 μM<EC99≤25 μM)	A (12.5 μM<EC99≤25 μM)	A (12.5 μM<EC99≤25 μM)	A (12.5 μM<EC99≤25 μM)	A (12.5 μM<EC99≤25 μM)
CSc1ccccc1CN1CCN(C(=O)[C@H](N)C2CCN(CCc3cc(Cl)ccc3-c3cccc(O)c3)CC2)CC1 [Example 611, Hydrochloride of (R)-2-amino-2-(1-(2-(4-chloro-3′-hydroxy-[1,1-biphenyl]-2-yl)ethyl)piperidin-4-yl)-1-(4-(2-(methylthio)benzyl)piperazin-1-yl)ethan-1-one]	–	–	–	–	–	S (EC99≤12.5 μM)	S (EC99≤12.5 μM)	S (EC99≤12.5 μM)	S (EC99≤12.5 μM)	B (25 μM<EC99≤100 μM)
CCSc1cc(F)ccc1CN1CCN(C(=O)[C@H](N)C2CCN(CCc3cc(Cl)ccc3-c3ccccc3N)CC2)CC1 [Example 604, Hydrochloride of (R)-2-amino-2-(1-(2-(2′-amino-4-chloro-[1,1-biphenyl]-2-yl)ethyl)piperidin-4-yl)-1-(4-(2-(ethylthio)-4-fluorobenzyl)piperazin-1-yl) ethan-1-one]	–	–	–	–	–	S (EC99≤12.5 μM)	S (EC99≤12.5 μM)	S (EC99≤12.5 μM)	A (12.5 μM<EC99≤25 μM)	A (12.5 μM<EC99≤25 μM)
CSc1cccc(O)c1CN1CCN(C(=O)[C@H](N)C2CCN(CCc3cc(Cl)ccc3-c3ccccc3)CC2)CC1 [Example 590, Hydrochloride of (R)-2-amino-2-(1-(2-(4-chloro-[1,1-biphenyl]-2-yl)ethyl)piperidin-4-yl)-1-(4-(2-hydroxy-6-(methylthio)benzyl)piperazin-1-yl) ethan-1-one]	–	–	–	–	–	S (EC99≤12.5 μM)	S (EC99≤12.5 μM)	S (EC99≤12.5 μM)	A (12.5 μM<EC99≤25 μM)	A (12.5 μM<EC99≤25 μM)
CCOc1cccc(F)c1CN1CCN(C(=O)[C@H](N)C2CCN(CCc3cc(Cl)ccc3-c3cncc(O)c3)CC2)CC1 [Example 572, Hydrochloride of (R)-2-amino-2-(1-(5-chloro-2-(5-hydroxypyridin-3-yl)phenethyl)piperidin-4-yl)-1-(4-(2-ethoxy-6-fluorobenzyl)piperazin-1-yl) ethan-1-one]	–	–	–	–	–	B (25 μM<EC99≤100 μM)	C (100 μM<EC99)	B (25 μM<EC99≤100 μM)	A (12.5 μM<EC99≤25 μM)	A (12.5 μM<EC99≤25 μM)
N[C@@H](C(=O)N1CCN(Cc2cccc3c2CCN3)CC1)C1CCN(CCc2cc(Cl)ccc2-c2ccccc2)CC1 [Example 513, Hydrobromide of (R)-2-amino-2-(1-(2-(4-chloro-[1,1-biphenyl]-2-yl)ethyl)piperidin-4-yl)-1-(4-(indolin-4-ylmethyl)piperazin-1-yl)ethan-1-one]	–	–	–	–	–	B (25 μM<EC99≤100 μM)	B (25 μM<EC99≤100 μM)	B (25 μM<EC99≤100 μM)	B (25 μM<EC99≤100 μM)	B (25 μM<EC99≤100 μM)
